Measured values taken from ChEMBL document CHEMBL1201862, “PubChem BioAssay data set” (2004).
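Briefly, cells in 96-well plates were exposed to five compound concentrations for 48 h, and endpoints were estimated by linear interpolation. GI50: concentration for 50% inhibition of growth.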 Active and inactive are the calls of the source. Cut-off read from the data, not from the text of the source: active = GI50 up to about 1.1 µM and inactive = higher.

Experiments:
Assay in all cases: NCI tumour cell line growth inhibition, 48 h
HOP-18 = system: HOP-18
RXF 393 = system: RXF 393
HCT-15 = system: HCT-15
K562 = system: K562
OVCAR-4 = system: OVCAR-4
TK-10 = system: TK-10
LXFL 529 = system: LXFL 529
SW-620 = system: SW-620
SK-OV-3 = system: SK-OV-3
NCI-H226 = system: NCI-H226
DMS-273 = system: DMS-273
CAKI-1 = system: CAKI-1
NCI-H23 = system: NCI-H23
DMS-114 = system: DMS-114
OVCAR-3 = system: OVCAR-3
M14 = system: M14
RXF 631 = system: RXF 631
A498 = system: A498
SNB-78 = system: SNB-78
SN12C = system: SN12C
XF498 = system: XF498
OVCAR-8 = system: OVCAR-8
UO-31 = system: UO-31
LOX IMVI = system: LOX IMVI
ACHN = system: ACHN
UACC-257 = system: UACC-257
SF-295 = system: SF-295
U-251 = system: U-251
SF-268 = system: SF-268
NCI-H522 = system: NCI-H522
786-0 = system: 786-0
SNB-75 = system: SNB-75
RPMI-8226 = system: RPMI-8226
UACC-62 = system: UACC-62
HT-29 = system: HT-29
DLD-1 = system: DLD-1
HL-60 = system: HL-60
HCC 2998 = system: HCC 2998
NCI-H460 = system: NCI-H460
KM12 = system: KM12
HCT-116 = system: HCT-116
Malme-3M = system: Malme-3M
IGROV-1 = system: IGROV-1
SK-MEL-28 = system: SK-MEL-28
SR = system: SR
SK-MEL-2 = system: SK-MEL-2
HOP-92 = system: HOP-92
COLO 205 = system: COLO 205
MOLT-4 = system: MOLT-4
SNB-19 = system: SNB-19
KM-20L2 = system: KM-20L2
SK-MEL-5 = system: SK-MEL-5
M19-MEL = system: M19-MEL
SF-539 = system: SF-539
CCRF-CEM = system: CCRF-CEM
OVCAR-5 = system: OVCAR-5
A549 = system: A549
HOP-62 = system: HOP-62
EKVX = system: EKVX

## Cc1ccc(NC(=O)CC2C(=O)Nc3ccccc3[S+]2[O-])c(C)c1 (stereo unspecified)
HOP-18
  GI50: 28.1 µM (inactive)
RXF 393
  GI50: 8.61 µM (inactive)
HCT-15
  GI50: 4.94 µM
K562
  GI50: 4.03 µM (inactive)
OVCAR-4
  GI50: 17.3 µM (inactive)
TK-10
  GI50: 22.4 µM (inactive)
LXFL 529
  GI50: 16.5 µM (inactive)
SW-620
  GI50: 5.81 µM (inactive)
SK-OV-3
  GI50: 17.6 µM (inactive)
NCI-H226
  GI50: 16.2 µM (inactive)
DMS-273
  GI50: 6.15 µM (inactive)
CAKI-1
  GI50: 11 µM (inactive)
NCI-H23
  GI50: 14.9 µM (inactive)
DMS-114
  GI50: 7.94 µM (inactive)
OVCAR-3
  GI50: 9.51 µM (inactive)
M14
  GI50: 6.78 µM (inactive)
RXF 631
  GI50: 17.2 µM (inactive)
A498
  GI50: 18.9 µM (inactive)
SNB-78
  GI50: 16.4 µM (inactive)
SN12C
  GI50: 30.5 µM (inactive)
XF498
  GI50: 10.4 µM (inactive)
OVCAR-8
  GI50: 16.9 µM (inactive)
UO-31
  GI50: 19.3 µM (inactive)
LOX IMVI
  GI50: 16.4 µM (inactive)
ACHN
  GI50: 21 µM (inactive)
UACC-257
  GI50: 50.8 µM (inactive)
SF-295
  GI50: 12.8 µM (inactive)
U-251
  GI50: 10.8 µM (inactive)
SF-268
  GI50: 24.5 µM (inactive)
NCI-H522
  GI50: 6.89 µM (inactive)
786-0
  GI50: 15.1 µM (inactive)
SNB-75
  GI50: 11.7 µM (inactive)
RPMI-8226
  GI50: 12.1 µM (inactive)
UACC-62
  GI50: 7.23 µM (inactive)
HT-29
  GI50: 4.35 µM (inactive)
DLD-1
  GI50: 15.3 µM (inactive)
HL-60
  GI50: 2.86 µM (inactive)
HCC 2998
  GI50: 20 µM (inactive)
NCI-H460
  GI50: 13 µM (inactive)
KM12
  GI50: 4.6 µM (inactive)
HCT-116
  GI50: 8.69 µM (inactive)
Malme-3M
  GI50: 18.4 µM (inactive)
IGROV-1
  GI50: 12.8 µM (inactive)
SK-MEL-28
  GI50: 15.8 µM (inactive)
SR
  GI50: 2.9 µM (inactive)
SK-MEL-2
  GI50: 9.35 µM (inactive)
HOP-92
  GI50: 13.9 µM (inactive)
COLO 205
  GI50: 7.52 µM (inactive)
MOLT-4
  GI50: 6.28 µM (inactive)
SNB-19
  GI50: 11.7 µM (inactive)
KM-20L2
  GI50: 12.3 µM (inactive)
SK-MEL-5
  GI50: 4.11 µM (inactive)
M19-MEL
  GI50: 13.1 µM (inactive)
SF-539
  GI50: 12.9 µM (inactive)
CCRF-CEM
  GI50: 11.5 µM (inactive)
OVCAR-5
  GI50: 53.7 µM (inactive)
A549
  GI50: 16.1 µM (inactive)
HOP-62
  GI50: 16.4 µM (inactive)
EKVX
  GI50: > 61.7 µM (inactive)

## N/N=c1\c2ccccc2c2cc3c(cc12)/c(=N/N)c1ccccc13
HOP-18
  GI50: > 100 µM (inactive)
RXF 393
  GI50: > 100 µM (inactive)
HCT-15
  GI50: > 100 µM
K562
  GI50: > 100 µM (inactive)
OVCAR-4
  GI50: > 100 µM (inactive)
LXFL 529
  GI50: > 100 µM (inactive)
SW-620
  GI50: > 100 µM (inactive)
SK-OV-3
  GI50: > 100 µM (inactive)
NCI-H226
  GI50: > 100 µM (inactive)
DMS-273
  GI50: > 100 µM (inactive)
NCI-H23
  GI50: > 100 µM (inactive)
DMS-114
  GI50: > 100 µM (inactive)
M14
  GI50: > 100 µM (inactive)
RXF 631
  GI50: > 100 µM (inactive)
SNB-78
  GI50: > 100 µM (inactive)
SN12C
  GI50: > 100 µM (inactive)
OVCAR-8
  GI50: > 100 µM (inactive)
UO-31
  GI50: > 100 µM (inactive)
ACHN
  GI50: > 100 µM (inactive)
UACC-257
  GI50: > 100 µM (inactive)
SF-295
  GI50: > 100 µM (inactive)
U-251
  GI50: > 100 µM (inactive)
SF-268
  GI50: > 100 µM (inactive)
NCI-H522
  GI50: > 100 µM (inactive)
786-0
  GI50: > 100 µM (inactive)
SNB-75
  GI50: 59.4 µM (inactive)
RPMI-8226
  GI50: > 100 µM (inactive)
UACC-62
  GI50: > 100 µM (inactive)
HT-29
  GI50: > 100 µM (inactive)
DLD-1
  GI50: > 100 µM (inactive)
HL-60
  GI50: > 100 µM (inactive)
HCC 2998
  GI50: > 100 µM (inactive)
NCI-H460
  GI50: > 100 µM (inactive)
KM12
  GI50: > 100 µM (inactive)
HCT-116
  GI50: > 100 µM (inactive)
Malme-3M
  GI50: > 100 µM (inactive)
IGROV-1
  GI50: > 100 µM (inactive)
SK-MEL-28
  GI50: > 100 µM (inactive)
SR
  GI50: 76.2 µM (inactive)
SK-MEL-2
  GI50: > 100 µM (inactive)
HOP-92
  GI50: > 100 µM (inactive)
COLO 205
  GI50: > 100 µM (inactive)
MOLT-4
  GI50: > 100 µM (inactive)
SNB-19
  GI50: > 100 µM (inactive)
KM-20L2
  GI50: > 100 µM (inactive)
SK-MEL-5
  GI50: > 100 µM (inactive)
M19-MEL
  GI50: > 100 µM (inactive)
SF-539
  GI50: > 100 µM (inactive)
CCRF-CEM
  GI50: > 100 µM (inactive)
OVCAR-5
  GI50: > 100 µM (inactive)
A549
  GI50: > 100 µM (inactive)
HOP-62
  GI50: > 100 µM (inactive)
EKVX
  GI50: > 100 µM (inactive)

## COc1cc(/C=C/c2ccc(OC)c(OC)c2OC)cc(OC)c1OC
HOP-18
  GI50: 17.5 µM (inactive)
RXF 393
  GI50: 22 µM (inactive)
HCT-15
  GI50: 18.5 µM
K562
  GI50: 23.1 µM (inactive)
OVCAR-4
  GI50: 25.4 µM (inactive)
TK-10
  GI50: 28.2 µM (inactive)
LXFL 529
  GI50: 17.3 µM (inactive)
SW-620
  GI50: 29.3 µM (inactive)
SK-OV-3
  GI50: 24.7 µM (inactive)
NCI-H226
  GI50: 17.6 µM (inactive)
DMS-273
  GI50: 16.4 µM (inactive)
CAKI-1
  GI50: 25.1 µM (inactive)
NCI-H23
  GI50: 23.6 µM (inactive)
DMS-114
  GI50: 18.2 µM (inactive)
OVCAR-3
  GI50: 16 µM (inactive)
M14
  GI50: 25.4 µM (inactive)
RXF 631
  GI50: 20 µM (inactive)
A498
  GI50: 22 µM (inactive)
SNB-78
  GI50: 17.3 µM (inactive)
SN12C
  GI50: 21.4 µM (inactive)
XF498
  GI50: 25.5 µM (inactive)
OVCAR-8
  GI50: 24.9 µM (inactive)
UO-31
  GI50: 14.1 µM (inactive)
LOX IMVI
  GI50: 16.1 µM (inactive)
ACHN
  GI50: 25.1 µM (inactive)
UACC-257
  GI50: 20.9 µM (inactive)
SF-295
  GI50: 20.8 µM (inactive)
U-251
  GI50: 16.8 µM (inactive)
SF-268
  GI50: 20.1 µM (inactive)
NCI-H522
  GI50: 15.3 µM (inactive)
786-0
  GI50: 21.8 µM (inactive)
SNB-75
  GI50: 10.8 µM (inactive)
RPMI-8226
  GI50: 14.1 µM (inactive)
UACC-62
  GI50: 13.4 µM (inactive)
HT-29
  GI50: 20.8 µM (inactive)
DLD-1
  GI50: 18.3 µM (inactive)
HL-60
  GI50: 23.1 µM (inactive)
HCC 2998
  GI50: 13.2 µM (inactive)
NCI-H460
  GI50: 20.3 µM (inactive)
KM12
  GI50: 22 µM (inactive)
HCT-116
  GI50: 14.6 µM (inactive)
Malme-3M
  GI50: 20.2 µM (inactive)
IGROV-1
  GI50: 28.2 µM (inactive)
SK-MEL-28
  GI50: 15.3 µM (inactive)
SR
  GI50: 12.2 µM (inactive)
SK-MEL-2
  GI50: 16.9 µM (inactive)
HOP-92
  GI50: 9.35 µM (inactive)
COLO 205
  GI50: 17.3 µM (inactive)
MOLT-4
  GI50: 19.3 µM (inactive)
SNB-19
  GI50: 21.3 µM (inactive)
KM-20L2
  GI50: 20.2 µM (inactive)
SK-MEL-5
  GI50: 14.7 µM (inactive)
M19-MEL
  GI50: 20.2 µM (inactive)
SF-539
  GI50: 18.5 µM (inactive)
CCRF-CEM
  GI50: 22.4 µM (inactive)
OVCAR-5
  GI50: 15.8 µM (inactive)
A549
  GI50: 27.2 µM (inactive)
HOP-62
  GI50: 15.6 µM (inactive)
EKVX
  GI50: 21.5 µM (inactive)
